Measured values: patent publication US10159265B2, “Feed composition for reducing ruminant methanogenesis” (priority 2012, dated 2018)
Marks after values point to notes of the source that are not given here.

Key:
[1] = system: ruminal bacteria; assay: Bacterial DNA concentration by qPCR; assay type: cell-based, calves; details: 12 hours of incubation
Experimental: (§1) Rumen cannulated calves which received a mixed ration mainly composed of concentrate (90:10) were used as rumen fluid donor; feed composition is presented in Table 1. The inoculum was collected and filtered through two-layer surgical gauze and kept in thermo pots. Flavonoids (Table 2) plus 600 mg of concentrate (Table 1) and 60 mg of barley straw as the substrate were dosed by triplicate in preheated bottles (39° C.) and maintained under anaerobic conditions. Flavonoids isonaringin, neoeritrocin, poncirin were purchased from INDOFINE Chemical Company, Inc (USA). 10 ml of rumen fluid and 40 ml of incubation medium were added to the bottles (McDougall, El (1948) Studies on ruminant saliva. 1. The composition and output of sheep's saliva. Biochem J. 43(1) 99-109). Once the bottles were filled and the anaerobic condition was applied, the bottles were sealed and the incubation process was started in a hot water bath. Pressure readings were made at 2, 4, 6, 8, 12, 24, 36 and 48 hours. Each sample was incubated in triplicate in two sets or batches.
(§2) After 12 hours of incubation, one bottle (replicate) from each treatment was opened, pH was recorded and the bottle was sampled for volatile fatty acids (Jouany, J. P., 1982 Science des Aliments 2, 131-144), lactate (Taylor, K. A. C. C., 1996. Appl. Biochem. Biotechnol. Enzym. Eng. Biotechnol. 56, 49-58) and ammonia (Chaney, A. L., Marbach, E. P., 1962. Clin. Chem. 8, 130-132) analyses.
(§3) The environmental DNA was extracted using the technique proposed by Yu and Morrison (2004). Quantification of Streptococcus bovis, Megasphaera elsdenii and Selenomonas ruminantium DNA was done by qPCR using specific primers (Tajima, K. et al. 2001. Appl. Environ. Microb. 67, 2766-2774; Ouwerkerk, D., et al. 2002. J. Appl. Microbiol. 92, 753-758). Results were statistically analyzed using the PROC MIXED procedure of SAS statistical package (SAS, 2000, User's guide: Statistics, version 8 editions inst., Inc., Cary, N.C.). The least significant difference was used to compare the means. Differences between means in which P<0.05 were accepted as significant.

[2] = system: methanogenic (archea) populations; assay: Methane production in "in vitro" rumen fluid culture; assay type: cell-based, calves; parameters: Average methane production / Accumulated methane production / Methane production / Cumulative methane production: unit not given here; details: Exp 1
Description: (§4) Two trials following an identical experimental protocol were designed to study the effect of different pure flavonoids on rumen fermentation using a simulatory “in vitro” system based on the experimental protocol described by Theodorou M K et al. (1994) Animal Feed Science and Technology, 48 (3), p. 185-197; Mauricio, R. M., et al. (1999) Animal Feed Science and Technology 79, 321-330.
as §1, with “Pressure readings were made at 2, 4, 6, 8, 12, 24, 36 and 48 hours.” left out
The effects of flavonoids substances on fermentation activity of certain archea populations which are theoretically responsible for the methane production were analyzed.
The experimental design allows determining whether the effect of flavonoids on methane reduction was derived from a general reduction in microbial activity and biogas production or contrarily flavonoid affects specifically on methanogenic (archea) populations. The presence of flavonoids in the culture medium reduced methane contribution in the total biogas production (P<0.05) although, again, the aforementioned impact was heterogeneous.

[3] = system: "in vitro" ruminal fluid cultures; assay: Ammonia (N-NH3) concentration in "in vitro" ruminal fluid cultures; assay type: cell-based, calves; details: for N-NH3 concentration, average (M): average over incubation times
Description: as §4, §1, §2

[4] = system: Megasphaera elsdenii; assay: qPCR relative quantification of Megasphaera elsdenii; assay type: cell-based; details: 12 hours of incubation
Experimental: as §1, §2, §3

[5] = system: Selenomonas ruminantium; assay: qPCR relative quantification of Selenomonas ruminantium; assay type: cell-based; details: 12 hours of incubation
Experimental: as §1, §2, §3

[6] = system: "in vitro" ruminal fluid culture; assay: Lactate concentration in "in vitro" ruminal fluid culture; assay type: cell-based, calves; details: 12 hours of incubation
Description: as §4, §1, §2

[7] = system: "in vitro" ruminal fluid cultures; assay: Volatile fatty acid concentration and molar proportions in "in vitro" ruminal fluid cultures; assay type: cell-based, calves; details: for % Acetate, molar ratio, average (μ) / % Butyrate, molar ratio, average (μ) / % Propionate, molar ratio, average (M) / VFA concentration, average (μ): average over incubation times
Description: as §4, §1
[…] P., 1982 Science des Aliments 2, 131-144), lactate (Taylor, K. A. C. C., 1996. Appl. Biochem. Biotechnol. Enzym. Eng. Biotechnol. 56, 49-58) and ammonia (Chaney, A. L., Marbach, E. P., 1962. Clin. Chem. 8, 130-132) analyses.

[8] = system: "in vitro" ruminal fluid cultures; assay: Ammonia (N-NH3) concentration in "in vitro" ruminal fluid cultures; assay type: cell-based, calves; details: 72 h
[9] = system: "in vitro" rumen fluid culture; assay: Biogas production in "in vitro" rumen fluid culture (pressure meter); assay type: cell-based, calves; parameters: Average biogas production / Cumulative biogas production / Biogas production: unit not given here; details: Exp 1; for Average biogas production: average over doses and incubation times
Experimental: as §4
Gas production was determined from a semi-automatic pressure meter, the relationship between pressure levels and the produced gas volume was previously calculated.
as §1, with “Pressure readings were made at 2, 4, 6, 8, 12, 24, 36 and 48 hours.” left out

[10] = system: Streptococcus bovis; assay: qPCR relative quantification of Streptococcus bovis; assay type: cell-based; details: 12 hours of incubation
Experimental: as §1, §2, §3

[11] = average over doses and incubation times

Compound: COc1ccc([C@@H]2CC(=O)c3c(O)cc(O[C@@H]4O[C@H](CO[C@@H]5O[C@@H](C)[C@H](O)[C@@H](O)[C@H]5O)[C@@H](O)[C@H](O)[C@H]4O)cc3O2)cc1O [Hesperidin, hesperidin]
- Bacteria DNA [1]: 9.18 ^a μg/ml
- Accumulated methane production ([2]; 12 h): 21.08
- Proportion of methane in the produced biogas ([2]; 12 h): 11.26
- Accumulated methane production ([2]; 24 h): 26.03
- Proportion of methane in the produced biogas ([2]; 24 h): 12.40
- Accumulated methane production ([2]; 48 h): 31.54
- Proportion of methane in the produced biogas ([2]; 48 h): 16.43
- Accumulated methane production ([2]; 72 h): 35.04
- Proportion of methane in the produced biogas ([2]; 72 h): 16.55
- Average methane production [2, 11]: 28.42^cd
- Proportion of methane in the produced biogas [2, 11]: 14.16^cd
- Average methane production ([2]; average over doses and incubation times, listed as hesperidin): not modified
- Methane production ([2]; dose 1, 0.2 g/kg DM): 28.11
- Proportion of methane in the produced biogas ([2]; dose 1, 0.2 g/kg DM): 14.05
- Methane production ([2]; dose 2, 0.5 g/kg DM): 28.74
- Proportion of methane in the produced biogas ([2]; dose 2, 0.5 g/kg DM): 14.27
- N-NH3 concentration ([3]; 0 h (initial constant value)): 149.99 mg/L
- N-NH3 concentration ([3]; 12 h): 187.36 mg/L
- N-NH3 concentration, average (M) [3]: 220.15 mg/L
- Relative Quantification 2^(ΔΔCt) M. elsdenii [4]: 1.18 ^b
- Relative Quantification 2^(ΔΔCt) S. ruminantium [5]: 0.74
- Lactate [6]: 44.3 mg/L
- Lactate ([6]; listed as hesperidin): tended to moderate the recorded increase
- % Acetate, molar ratio ([7]; 0 h): 62.51 mol/100 mol
- % Butyrate, molar ratio ([7]; 0 h): 9.07 mol/100 mol
- % Propionate, molar ratio ([7]; 0 h): 20.03 mol/100 mol
- A/P rate (acetate/propionate) ([7]; 0 h): 3.12
- VFA concentration ([7]; 0 h (initial constant value)): 13.78 mmol/L
- % Acetate, molar ratio ([7]; 12 h): 56.88 mol/100 mol
- % Butyrate, molar ratio ([7]; 12 h): 10.41 mol/100 mol
- % Propionate, molar ratio ([7]; 12 h): 27.22 mol/100 mol
- A/P rate (acetate/propionate) ([7]; 12 h): 2.09
- VFA concentration ([7]; 12 h): 38.25 mmol/L
- % Acetate, molar ratio ([7]; 72 h): 56.04 mol/100 mol
- % Butyrate, molar ratio ([7]; 72 h): 10.78 mol/100 mol
- % Propionate, molar ratio ([7]; 72 h): 25.80 mol/100 mol
- A/P rate (acetate/propionate) ([7]; 72 h): 2.17
- VFA concentration ([7]; 72 h): 53.70 mmol/L
- % Acetate, molar ratio, average (μ) [7]: 58.48 mol/100 mol
- % Butyrate, molar ratio, average (μ) [7]: 10.08 ^ab mol/100 mol
- % Propionate, molar ratio, average (M) [7]: 24.35 ^ab mol/100 mol
- VFA concentration, average (μ) [7]: 35.25 mmol/L
- N-NH3 concentration [8]: 323.11 mg/L
- Cumulative biogas production ([9]; 12 h incubation): 187.19
- Cumulative biogas production ([9]; 24 h incubation): 227.31
- Cumulative biogas production ([9]; 48 h incubation): 261.28
- Cumulative biogas production ([9]; 72 h incubation): 282.84
- Average biogas production [9]: 239.65^cd
- Average biogas production ([9]; listed as hesperidin): 239.6
- Biogas production ([9]; dose 1, 0.2 g/kg DM): 239.91
- Biogas production ([9]; dose 2, 0.5 g/kg DM): 239.4
- Relative Quantification 2^(ΔΔCt) S. bovis [10]: 0.58

Compound: C[C@@H]1O[C@@H](OC[C@H]2O[C@@H](Oc3cc(O)c4c(c3)O[C@H](c3ccc(O)cc3)CC4=O)[C@H](O)[C@@H](O)[C@@H]2O)[C@H](O)[C@H](O)[C@H]1O [Isonaringin, isonaringin]
- Bacteria DNA [1]: 16.18 ^ab μg/ml
- Accumulated methane production ([2]; 12 h): 19.84
- Proportion of methane in the produced biogas ([2]; 12 h): 10.68
- Accumulated methane production ([2]; 24 h): 24.94
- Proportion of methane in the produced biogas ([2]; 24 h): 13.56
- Accumulated methane production ([2]; 48 h): 30.81
- Proportion of methane in the produced biogas ([2]; 48 h): 16.79
- Accumulated methane production ([2]; 72 h): 34.08
- Proportion of methane in the produced biogas ([2]; 72 h): 16.89
- Average methane production [2, 11]: 27.42^de
- Proportion of methane in the produced biogas [2, 11]: 14.48^bc
- Average methane production ([2]; average over doses and incubation times, listed as isonaringin): decreased
- Methane production ([2]; dose 1, 0.2 g/kg DM): 27.40
- Proportion of methane in the produced biogas ([2]; dose 1, 0.2 g/kg DM): 14.53
- Methane production ([2]; dose 2, 0.5 g/kg DM): 27.43
- Proportion of methane in the produced biogas ([2]; dose 2, 0.5 g/kg DM): 14.43
- N-NH3 concentration ([3]; 0 h (initial constant value)): 149.99 mg/L
- N-NH3 concentration ([3]; 12 h): 165.46 mg/L
- N-NH3 concentration, average (M) [3]: 212.66 mg/L
- Relative Quantification 2^(ΔΔCt) M. elsdenii [4]: 1.08 ^ab
- Relative Quantification 2^(ΔΔCt) S. ruminantium [5]: 0.86
- Lactate [6]: 92.4 mg/L
- % Acetate, molar ratio ([7]; 0 h): 62.51 mol/100 mol
- % Butyrate, molar ratio ([7]; 0 h): 9.07 mol/100 mol
- % Propionate, molar ratio ([7]; 0 h): 20.03 mol/100 mol
- A/P rate (acetate/propionate) ([7]; 0 h): 3.12
- VFA concentration ([7]; 0 h (initial constant value)): 13.78 mmol/L
- % Acetate, molar ratio ([7]; 12 h): 53.94 mol/100 mol
- % Butyrate, molar ratio ([7]; 12 h): 10.31 mol/100 mol
- % Propionate, molar ratio ([7]; 12 h): 30.20 mol/100 mol
- A/P rate (acetate/propionate) ([7]; 12 h): 1.79
- VFA concentration ([7]; 12 h): 36.49 mmol/L
- % Acetate, molar ratio ([7]; 72 h): 55.34 mol/100 mol
- % Butyrate, molar ratio ([7]; 72 h): 10.24 mol/100 mol
- % Propionate, molar ratio ([7]; 72 h): 26.94 mol/100 mol
- A/P rate (acetate/propionate) ([7]; 72 h): 2.06
- VFA concentration ([7]; 72 h): 52.26 mmol/L
- % Acetate, molar ratio, average (μ) [7]: 57.26 mol/100 mol
- % Butyrate, molar ratio, average (μ) [7]: 9.87 ^ab mol/100 mol
- % Propionate, molar ratio, average (M) [7]: 25.72 ^b mol/100 mol
- VFA concentration, average (μ) [7]: 34.18 mmol/L
- % Propionate, molar ratio, average (M) ([7]; listed as isonaringin): improved
- N-NH3 concentration [8]: 322.53 mg/L
- Cumulative biogas production ([9]; 12 h incubation): 185.58
- Cumulative biogas production ([9]; 24 h incubation): 223.38
- Cumulative biogas production ([9]; 48 h incubation): 258.85
- Cumulative biogas production ([9]; 72 h incubation): 278.66
- Biogas production ([9]; dose 1, 0.2 g/kg DM): 235.13
- Biogas production ([9]; dose 2, 0.5 g/kg DM): 238.1
- Relative Quantification 2^(ΔΔCt) S. bovis [10]: 0.46
